In US20210369746A1, “ADMINISTRATION OF HYPOXIA ACTIVATED PRODRUGS IN COMBINATION WITH IMMUNE MODULATORY AGENTS FOR TREATING CANCER” (MOLECULAR TEMPLATES, INC., priority 2016, published 2021):

Test system: TRAMP-C2 and/or Panc02 pancreatic ductal adenocarcinoma cells
Experiment: Antitumor activity of TH-302 with immune modulating agents in mice xenografts
Type: in vivo
Conditions: single agent; TH-302 50 mg/kg i.p. every day for 5 days; tumor growth observed by IVIS
Procedure: 5×10^5 to 1×10^6 TRAMP-C2, C57BL/6J, B6, FVB F1 cells and/or Panc02 pancreatic ductal adenocarcinoma cells expressing luciferase are […] implanted s.c. on the right flank of albino or ODD-Luc reporter mice. The mice are treated with TH-302 alone (50 mg/kg i.p., every day for 5 days), either 1 week, 3 weeks or 16 weeks after TRAMP cell implantation, with a week of rest in between. Some mice are also treated with CTLA-4 blocking antibody 9H10, PD-1 blocking antibody RMP1-14 and/or agonistic […] antibody given i.p. on days 1, 4, 7 and days 13, 16 and 19 for one to three cycles. Mice are monitored for survival (log-rank, mantel-cox test) and tumor growth was observed by IVIS once a week up to 140 days after tumor implantation. The mice were then sacrificed and their organs were weighed and tumors were isolated, fixed in paraformaldehyde or acetone, embedded/mounted in OCT, frozen, sectioned, stained for hypoxia with anti-piminidazole FITC, GR-1 V450, CD11b Alexa 546, and/or F4/80 Alexa 647.

`Cn1c(COP(=O)(NCCBr)NCCBr)cnc1[N+](=O)[O-]` [TH-302] was tested, and the tumor growth delay was “produced a growth delay”.
